Reference: the supplement of paper PMC10307832

Assays:
Assay in all cases: relative viability (nuclei count vs DMSO), 5 days (fraction); higher = more cells survive
[1] = compound: Cc1nc(C(=O)NCC(=O)O)c(O)c2ccc(Oc3ccccc3)cc12 [FG-4592] + COc1cccc2cc(-c3nc([C@H]4CC[C@H](C(=O)O)CC4)n4ncnc(N)c34)[nH]c12 [OSI-027] (partner 0.5 µM)
Summary of the method: (§1)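 Dosing by pin tool came one day after lung cancer cell lines were seeded in 1536-well plates, using either one drug or a fixed anchor-drug dose plus five library-drug doses (not always all listed) in √10 steps. After 5 days, nuclei were counted on 4× images. Relative viability is treated-well nuclei count divided by vehicle-well nuclei count, and values are medians of duplicate plates.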

[2] = compound: Cc1nc(C(=O)NCC(=O)O)c(O)c2ccc(Oc3ccccc3)cc12 [FG-4592] + Nc1ncn([C@H]2C[C@H](O)[C@@H](CO)O2)c(=O)n1 [Decitabine] (partner 2 µM)
Summary of the method: as §1

[3] = compound: Cc1nc(C(=O)NCC(=O)O)c(O)c2ccc(Oc3ccccc3)cc12 [FG-4592] + O=C(c1cc(Cc2n[nH]c(=O)c3ccccc23)ccc1F)N1CCN(C(=O)C2CC2)CC1 [Olaparib] (partner 8 µM)
Summary of the method: as §1

[4] = compound: CC1=CC(=C(N1C2=CC=C(C=C2)Cl)C)C(=O)CN3CCCCC3 [IU1-47] + Nc1nc2[nH]cc(CCc3ccc(C(=O)N[C@@H](CCC(=O)O)C(=O)O)cc3)c2c(=O)[nH]1 [Pemetrexed] (partner 0.2 µM)
Summary of the method: as §1

With NCI-H3122 the relative viability ([1]; first compound 0.08 µM) was 1, the relative viability ([1]; first compound 0.253 µM) was 0.899 and the relative viability ([1]; first compound 0.8 µM) was 0.889. It also gave a relative viability ([1]; first compound 2.53 µM) of 0.768, a relative viability ([1]; first compound 8 µM) of 0.563 and a relative viability ([2]; first compound 0.08 µM) of 0.405. For the same cell line, the relative viability ([2]; first compound 0.253 µM) was 0.476, the relative viability ([2]; first compound 0.8 µM) was 0.332 and the relative viability ([2]; first compound 2.53 µM) was 0.48. For the same cell line, the relative viability ([2]; first compound 8 µM) was 0.362, the relative viability ([3]; first compound 0.08 µM) was 0.637 and the relative viability ([3]; first compound 0.253 µM) was 0.606. For the same cell line, the relative viability ([3]; first compound 0.8 µM) was 0.681, the relative viability ([3]; first compound 2.53 µM) was 0.656 and the relative viability ([3]; first compound 8 µM) was 0.661. For the same cell line, the relative viability ([4]; first compound 0.08 µM) was 0.197, the relative viability ([4]; first compound 0.253 µM) was 0.206 and the relative viability ([4]; first compound 0.8 µM) was 0.204. It also gave a relative viability ([4]; first compound 2.53 µM) of 0.218 and a relative viability ([4]; first compound 8 µM) of 0.205.

NCI-H460 was tested, and the relative viability ([1]; first compound 0.08 µM) was 0.757, the relative viability ([1]; first compound 0.253 µM) was 0.641 and the relative viability ([1]; first compound 0.8 µM) was 0.721. The relative viability ([1]; first compound 2.53 µM) was 0.554, the relative viability ([1]; first compound 8 µM) was 0.614 and the relative viability ([2]; first compound 0.08 µM) was 0.448. The relative viability ([2]; first compound 0.253 µM) was 0.461, the relative viability ([2]; first compound 0.8 µM) was 0.51 and the relative viability ([2]; first compound 2.53 µM) was 0.482. For the same cell line, the relative viability ([2]; first compound 8 µM) was 0.51, the relative viability ([3]; first compound 0.08 µM) was 0.445 and the relative viability ([3]; first compound 0.253 µM) was 0.449. It also gave a relative viability ([3]; first compound 0.8 µM) of 0.462, a relative viability ([3]; first compound 2.53 µM) of 0.51 and a relative viability ([3]; first compound 8 µM) of 0.43. The relative viability ([4]; first compound 0.08 µM) was 0.0569, the relative viability ([4]; first compound 0.253 µM) was 0.0572 and the relative viability ([4]; first compound 0.8 µM) was 0.0551. The relative viability ([4]; first compound 2.53 µM) was 0.0515 and the relative viability ([4]; first compound 8 µM) was 0.0695.

For NCI-H650, the relative viability ([1]; first compound 0.08 µM) was 0.492, the relative viability ([1]; first compound 0.253 µM) was 0.457 and the relative viability ([1]; first compound 0.8 µM) was 0.433. It also gave a relative viability ([1]; first compound 2.53 µM) of 0.45, a relative viability ([1]; first compound 8 µM) of 0.407 and a relative viability ([2]; first compound 0.08 µM) of 0.314. For the same cell line, the relative viability ([2]; first compound 0.253 µM) was 0.275, the relative viability ([2]; first compound 0.8 µM) was 0.301 and the relative viability ([2]; first compound 2.53 µM) was 0.296. The relative viability ([2]; first compound 8 µM) was 0.306, the relative viability ([3]; first compound 0.08 µM) was 0.343 and the relative viability ([3]; first compound 0.253 µM) was 0.32. For the same cell line, the relative viability ([3]; first compound 0.8 µM) was 0.44, the relative viability ([3]; first compound 2.53 µM) was 0.364 and the relative viability ([3]; first compound 8 µM) was 0.354. For the same cell line, the relative viability ([4]; first compound 0.08 µM) was 1.01, the relative viability ([4]; first compound 0.253 µM) was 1.1 and the relative viability ([4]; first compound 0.8 µM) was 0.965. It also gave a relative viability ([4]; first compound 2.53 µM) of 0.878 and a relative viability ([4]; first compound 8 µM) of 1.

With NCI-H661 the relative viability ([1]; first compound 0.08 µM) was 0.712, the relative viability ([1]; first compound 0.253 µM) was 0.688 and the relative viability ([1]; first compound 0.8 µM) was 0.688. It also gave a relative viability ([1]; first compound 2.53 µM) of 0.763, a relative viability ([1]; first compound 8 µM) of 0.668 and a relative viability ([2]; first compound 0.08 µM) of 0.526. For the same cell line, the relative viability ([2]; first compound 0.253 µM) was 0.469, the relative viability ([2]; first compound 0.8 µM) was 0.563 and the relative viability ([2]; first compound 2.53 µM) was 0.535. For the same cell line, the relative viability ([2]; first compound 8 µM) was 0.484, the relative viability ([3]; first compound 0.08 µM) was 0.708 and the relative viability ([3]; first compound 0.253 µM) was 0.727. The relative viability ([3]; first compound 0.8 µM) was 0.822, the relative viability ([3]; first compound 2.53 µM) was 0.757 and the relative viability ([3]; first compound 8 µM) was 0.816. The relative viability ([4]; first compound 0.08 µM) was 0.925, the relative viability ([4]; first compound 0.253 µM) was 0.961 and the relative viability ([4]; first compound 0.8 µM) was 0.977. It also gave a relative viability ([4]; first compound 2.53 µM) of 0.925 and a relative viability ([4]; first compound 8 µM) of 0.947.

NCI-H1793 gave a relative viability ([1]; first compound 0.08 µM) of 0.223, a relative viability ([1]; first compound 0.253 µM) of 0.229 and a relative viability ([1]; first compound 2.53 µM) of 0.178. It also gave a relative viability ([1]; first compound 8 µM) of 0.254, a relative viability ([2]; first compound 0.253 µM) of 0.476 and a relative viability ([2]; first compound 2.53 µM) of 0.55. For the same cell line, the relative viability ([2]; first compound 8 µM) was 0.398, the relative viability ([3]; first compound 0.253 µM) was 0.727 and the relative viability ([3]; first compound 2.53 µM) was 0.827. For the same cell line, the relative viability ([3]; first compound 8 µM) was 0.71, the relative viability ([4]; first compound 0.08 µM) was 0.691 and the relative viability ([4]; first compound 0.8 µM) was 0.802. For the same cell line, the relative viability ([4]; first compound 2.53 µM) was 0.798 and the relative viability ([4]; first compound 8 µM) was 0.629.

In the case of NCI-H1734, the relative viability ([1]; first compound 0.08 µM) was 0.565, the relative viability ([1]; first compound 0.253 µM) was 0.621 and the relative viability ([1]; first compound 0.8 µM) was 0.541. It also gave a relative viability ([1]; first compound 2.53 µM) of 0.529, a relative viability ([1]; first compound 8 µM) of 0.445 and a relative viability ([2]; first compound 0.08 µM) of 0.519. It also gave a relative viability ([2]; first compound 0.253 µM) of 0.463, a relative viability ([2]; first compound 0.8 µM) of 0.53 and a relative viability ([2]; first compound 2.53 µM) of 0.489. The relative viability ([2]; first compound 8 µM) was 0.458, the relative viability ([3]; first compound 0.08 µM) was 0.597 and the relative viability ([3]; first compound 0.253 µM) was 0.61. The relative viability ([3]; first compound 0.8 µM) was 0.664, the relative viability ([3]; first compound 2.53 µM) was 0.68 and the relative viability ([3]; first compound 8 µM) was 0.605. The relative viability ([4]; first compound 0.08 µM) was 0.454, the relative viability ([4]; first compound 0.253 µM) was 0.415 and the relative viability ([4]; first compound 0.8 µM) was 0.446. For the same cell line, the relative viability ([4]; first compound 2.53 µM) was 0.443 and the relative viability ([4]; first compound 8 µM) was 0.463.

LXF-289 gave a relative viability ([1]; first compound 0.08 µM) of 0.659, a relative viability ([1]; first compound 0.253 µM) of 0.717 and a relative viability ([1]; first compound 0.8 µM) of 0.755. The relative viability ([1]; first compound 2.53 µM) was 0.709, the relative viability ([1]; first compound 8 µM) was 0.821 and the relative viability ([2]; first compound 0.08 µM) was 0.425. For the same cell line, the relative viability ([2]; first compound 0.253 µM) was 0.386, the relative viability ([2]; first compound 0.8 µM) was 0.35 and the relative viability ([2]; first compound 2.53 µM) was 0.378. The relative viability ([2]; first compound 8 µM) was 0.305, the relative viability ([3]; first compound 0.08 µM) was 1.09 and the relative viability ([3]; first compound 0.253 µM) was 0.961. The relative viability ([3]; first compound 0.8 µM) was 1.07, the relative viability ([3]; first compound 2.53 µM) was 1.01 and the relative viability ([3]; first compound 8 µM) was 1.1. The relative viability ([4]; first compound 0.08 µM) was 0.888, the relative viability ([4]; first compound 0.253 µM) was 0.886 and the relative viability ([4]; first compound 0.8 µM) was 0.851. It also gave a relative viability ([4]; first compound 2.53 µM) of 0.945 and a relative viability ([4]; first compound 8 µM) of 0.856.

Work on H3255 yielded a relative viability ([1]; first compound 0.08 µM) of 0.573, a relative viability ([1]; first compound 0.253 µM) of 0.576 and a relative viability ([1]; first compound 0.8 µM) of 0.626. It also gave a relative viability ([1]; first compound 2.53 µM) of 0.617, a relative viability ([1]; first compound 8 µM) of 0.62 and a relative viability ([2]; first compound 0.08 µM) of 0.702. The relative viability ([2]; first compound 0.253 µM) was 0.585, the relative viability ([2]; first compound 0.8 µM) was 0.6 and the relative viability ([2]; first compound 2.53 µM) was 0.592. The relative viability ([2]; first compound 8 µM) was 0.557, the relative viability ([3]; first compound 0.08 µM) was 0.586 and the relative viability ([3]; first compound 0.253 µM) was 0.546. For the same cell line, the relative viability ([3]; first compound 0.8 µM) was 0.611, the relative viability ([3]; first compound 2.53 µM) was 0.629 and the relative viability ([3]; first compound 8 µM) was 0.622. It also gave a relative viability ([4]; first compound 0.08 µM) of 0.624, a relative viability ([4]; first compound 0.253 µM) of 0.544 and a relative viability ([4]; first compound 0.8 µM) of 0.63. The relative viability ([4]; first compound 2.53 µM) was 0.605 and the relative viability ([4]; first compound 8 µM) was 0.511.
